{
  "source": "patent US20240342158A1",
  "about": "“METHOD OF TREATING AND/OR PREVENTING TYPE 1 DIABETES WITH CEPHARANTHINE” (ALBERT EINSTEIN COLLEGE OF MEDICINE, priority 2021, published 2024)",
  "key": {"[1]": {"system": "splenocytes and draining lymph node cells of immunized NOD-DR3 mice", "assay": "Small molecule inhibition of cytokine production ex vivo (Milliplex)", "assay_type": "cell-based, humanized NOD-DR3 mice", "experimental": "Cytokine Assays: Milliplex mouse cytokines/chemokine magnetic panel (Catalog no. MCYTOMAG-70K, EMD Millipore Corporation, Billerica, MA) was used to assay the cytokines, as described in the art. Briefly, splenocytes were plated at 2×10^6 cells per well in 500 μl of medium (RPMI/10% FBS). Supernatants from stimulated lymphocytes were collected 48 h after stimulation with peptides and stored in −80° C. until the assay was performed. The 96-well plate supplied in the kit was washed with the wash buffer supplied and the plate was shaken for 10 min at room temperature. Standards and quality controls were added, followed by the samples. The pre-mixed beads (Interferon gamma and IL-2) were sonicated, vortexed and added to the wells. After shaking the plate overnight at 4° C., the plate was washed twice with wash buffer. Detection antibodies were added for 1 h at room temperature, and Streptavidin-Phycoerythrin was added for 30 min at room temperature. The plate was washed twice and sheath fluid was added to resuspend the beads for 5 min before reading in Luminex 200 with xPONENT software (Luminex, Austin, Texas).\nSmall Molecule Inhibition of Cytokine Production Ex Vivo: Eight NOD-DR3 mice were immunized with the three thyroidal/islet peptides. Upon sacrifice, splenocytes were incubated with 1 μM of small molecules (S5, S9, S15, S53) together with TPO.758 (20 μg/ml), GAD.492 (20 μg/ml) or Tg.1571 (20 μg/ml) respectively to assess the blockade of these peptides' presentation by the tested small molecules. Supernatants from stimulated lymphocytes were collected 48 h after stimulation with peptides and small molecules, and stored in −80° C. until the cytokine assay was performed. […]"}, "[2]": {"system": "humanized NOD-DR3 mice immunized with Tg.1571, GAD.492 and TPO.758", "assay": "Blocking the induction of APS3v in vivo: T-cell stimulation by CFSE analysis", "design": "stimulation index, T cell proliferation induced by GAD.492 / stimulation index, T cell proliferation induced by TPO.758 / T-cell proliferation induced by Tg.1571: dose or concentration left out as unconfirmed", "experimental": "Blocking the Induction of APS3v by cepharanthine In Vivo: […] with the peptide mix of Tg.1571, GAD.492 and TPO.758 on day 0; mice were injected with cepharanthine IP again on days 5 and 6 prior to immunization with the same peptide mix on day 7. As controls, four humanized NOD-DR3 littermates were injected with the vehicle that was used to dissolve cepharanthine for in vivo studies [ethanol: PEG400 (Fisher Scientific): saline (5:20:75)] (Frontage Laboratories, Exton, PA) using the same timeline for immunizations.\nT-Cell Stimulation and CFSE Analysis: Cells harvested from the spleen and draining lymph nodes of immunized mice were resuspended at 2×10^6 cells/ml in 0.1% BSA/PBS. 1×10^6 cells were labeled with 1.5 μM carboxyfluorescein diacetate succinimidyl ester (CFSE) (Life Technologies). After incubating for 10 min at 37° C., the staining was terminated by the addition of 4 volumes of ice-cold RPMI with 10% FBS. After incubating on ice for 5 min, the cells were washed three times with fresh RPMI and resuspended in fresh medium for counting.\nThe CFSE-labeled cells were plated at 2×10^5 cells/well in 100 μl medium (RPMI, 10% FBS). The cells were incubated with: medium, Tg.1571, GAD.492, TPO.758 (20 μg/ml), a negative control peptide (NC) (20 μg/ml), or mouse anti-CD3/CD28 beads (Life Technologies) that activate all CD4+ T-cells nonspecifically, as a positive control. The cells were collected after 5 days for flow cytometry analysis. All experiments were performed in quadruplicates. The results were analyzed using Flowjo (Tree Star, Ashland, OR). The stimulation index was calculated by using the following formula: stimulation index=[% proliferating lymphocytes (peptide/mitogen-treated)]/[% proliferating lymphocytes (medium-treated)].\nFour humanized NOD-DR3mice were treated with cepharanthine (S53) or vehicle (used to dissolve cepharanthine) for 2 consecutive days before each of the two immunizations with Tg.1571,GAD.492 and TPO.758 peptide mix. At sacrifice, splenocytes and draining lymph node cells were incubated with each peptide and labeled with CFSE for 5 days for T-cell stimulation analysis. Briefly, the CFSE labeled cells were plated at 2×10^5 cells/well in 100 μl medium (RPMI, 10% FBS).The cells were incubated with: medium, Tg.1571, GAD.492, TPO.758 (20 μg/ml), a negative control peptide (NC) (20 μg/ml), or mouse anti-CD3/CD28 beads (Life Technologies) that activate all CD4+ T-cells non-specifically, as a positive control. The cells were collected after 5 days for flow cytometry analysis (see Materials and Methods for details)."}},
  "data": [
    {"smiles": "COc1ccc2cc1Oc1ccc(cc1)C[C@H]1c3c(cc4c(c3Oc3cc5c(cc3OC)CCN(C)[C@@H]5C2)OCO4)CCN1C", "note": "[S53, Cepharanthine]", "values": [
      {"measurement": "IFN-g production in response to Tg.1571", "setting": "[1]; 1 μM small molecule + Tg.1571 20 μg/ml, 48 h", "value": "did not significantly reduce"},
      {"measurement": "inhibition of T-cell activation to all 3 peptides (production of IFNγ and IL-2)", "setting": "[1]; 1 micromolar, Tg.1571, GAD.492, TPO.758", "value": "consistently inhibited T-cell activation to all 3 peptides"},
      {"measurement": "stimulation index, T cell proliferation induced by GAD.492", "setting": "[2]; -1, 5, 6, CFSE, 5 days, vehicle control 3.21", "value": 1.53},
      {"measurement": "stimulation index, T cell proliferation induced by TPO.758", "setting": "[2]; -1, 5, 6, CFSE, 5 days, vehicle control 6.39", "value": 3.11},
      {"measurement": "T-cell proliferation induced by Tg.1571", "setting": "[2]; -1, 5, 6, CFSE, 5 days, vs vehicle", "value": "suppressed T-cell proliferation induced by Tg.1571, although not statistically significant"},
      {"measurement": "T-cell activation (lymphocyte proliferation, CFSE) in treated mice vs vehicle treated controls", "setting": "[2]; IV on days -2, -1, 5 and 6 at 1 mg/kg, sacrificed day 21", "value": "significantly suppressed T-cell activation"}
    ]}
  ]
}
